Results on 13 compounds are retold here after ChEMBL document CHEMBL3112562, “Structure-activity relationships of N-substituted 4-(trifluoromethoxy)benzamidines with affinity for GluN2B-containing NMDA receptors” (Bioorg Med Chem Lett, 2014).

SMILES strings stand for the structures.

The target in the test is Glutamate receptor ionotropic, NMDA 2B (Rattus norvegicus, UniProt Q00960). Nature of the test: Displacement of [3H]ifenprodil from Wistar rat GluN2B receptor after 2 hrs by liquid scintillation spectrometry. A general note: Displacement assays read how much labelled ligand stays bound in the presence of the test substance.
Glutamate receptor ionotropic, NMDA 2B, sequence (Q00960 whole entry): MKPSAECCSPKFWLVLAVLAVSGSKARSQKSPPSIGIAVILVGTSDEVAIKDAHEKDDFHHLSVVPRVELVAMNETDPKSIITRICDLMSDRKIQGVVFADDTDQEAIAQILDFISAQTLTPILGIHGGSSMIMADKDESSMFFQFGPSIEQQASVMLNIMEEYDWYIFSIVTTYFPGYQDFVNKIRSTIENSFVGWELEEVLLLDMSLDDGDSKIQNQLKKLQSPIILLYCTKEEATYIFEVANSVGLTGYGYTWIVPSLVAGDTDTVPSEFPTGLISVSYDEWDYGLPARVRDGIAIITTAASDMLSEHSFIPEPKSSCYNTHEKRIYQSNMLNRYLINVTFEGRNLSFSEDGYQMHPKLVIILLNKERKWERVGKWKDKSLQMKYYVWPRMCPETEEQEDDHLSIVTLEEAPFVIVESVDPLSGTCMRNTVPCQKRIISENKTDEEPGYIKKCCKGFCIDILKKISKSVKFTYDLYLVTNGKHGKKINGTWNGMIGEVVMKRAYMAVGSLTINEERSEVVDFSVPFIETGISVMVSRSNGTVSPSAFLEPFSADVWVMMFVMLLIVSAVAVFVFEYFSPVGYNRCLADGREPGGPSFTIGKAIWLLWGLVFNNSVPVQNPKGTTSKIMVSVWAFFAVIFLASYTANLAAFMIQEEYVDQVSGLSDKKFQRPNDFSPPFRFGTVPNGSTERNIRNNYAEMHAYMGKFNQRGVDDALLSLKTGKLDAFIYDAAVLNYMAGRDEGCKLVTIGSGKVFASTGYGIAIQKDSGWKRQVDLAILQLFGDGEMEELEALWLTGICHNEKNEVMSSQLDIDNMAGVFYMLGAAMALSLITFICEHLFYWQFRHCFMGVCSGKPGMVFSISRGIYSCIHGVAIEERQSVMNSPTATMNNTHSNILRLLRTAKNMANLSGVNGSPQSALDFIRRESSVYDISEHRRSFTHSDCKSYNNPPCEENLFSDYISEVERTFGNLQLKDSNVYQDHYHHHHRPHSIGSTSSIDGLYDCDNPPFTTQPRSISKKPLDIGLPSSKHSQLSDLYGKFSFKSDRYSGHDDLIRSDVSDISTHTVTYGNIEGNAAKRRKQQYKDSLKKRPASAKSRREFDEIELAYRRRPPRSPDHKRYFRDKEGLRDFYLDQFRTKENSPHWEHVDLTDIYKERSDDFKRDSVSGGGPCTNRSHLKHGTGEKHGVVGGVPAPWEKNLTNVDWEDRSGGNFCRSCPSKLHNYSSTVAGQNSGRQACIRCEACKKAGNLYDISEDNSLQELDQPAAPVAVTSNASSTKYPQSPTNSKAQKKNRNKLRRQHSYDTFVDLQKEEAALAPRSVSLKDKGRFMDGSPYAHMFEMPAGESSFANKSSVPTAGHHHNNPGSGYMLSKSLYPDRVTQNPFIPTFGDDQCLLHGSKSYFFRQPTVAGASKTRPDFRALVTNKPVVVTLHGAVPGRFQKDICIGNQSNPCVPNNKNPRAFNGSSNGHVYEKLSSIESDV
For `N=C(NCc1ccc2c(c1)OCO2)c1ccc(OC(F)(F)F)cc1`, affinity was put at a Ki of 26.3 nM.
Regarding `COc1cccc(CNC(=N)c2ccc(OC(F)(F)F)cc2)c1OC`, the inhibitory constant (Ki) came out at 303 nM.
`NC(=NCc1ccccc1C(F)(F)F)c1ccc(OC(F)(F)F)cc1`: the Ki turned out to be 8.09 nM.
Compound `N=C(NCc1cccc(F)c1)c1ccc(OC(F)(F)F)cc1` yielded a Ki of 2.86 nM.
Regarding `COc1cc(CN=C(N)c2ccc(OC(F)(F)F)cc2)cc(OC)c1OC`, the Ki was 1140 nM.
`N=C(NCC12C3C4C5C3C1C5C42)c1ccc(OC(F)(F)F)cc1` (stereo not drawn) showed a Ki of 150 nM.
Take `COc1ccccc1C/N=C(\N)c1ccc(OC(F)(F)F)cc1`: the inhibition constant Ki turned out to be 2.09 nM.
Compound `COc1ccc(CNC(=N)c2ccc(OC(F)(F)F)cc2)c(OC)c1` showed a Ki of 16.2 nM.
Regarding `NC(=NCc1cc(F)cc(F)c1)c1ccc(OC(F)(F)F)cc1`, affinity was put at a Ki of 3.58 nM.
`NC(=NCC12CC3CC(CC(C3)C1)C2)c1ccc(OC(F)(F)F)cc1`: the Ki came out at 4810 nM.
As to `N=C(NCc1ccc(F)c(F)c1)c1ccc(OC(F)(F)F)cc1`, the affinity, expressed as Ki, was 8.25 nM.
On to `COc1ccc(OC)c(CNC(=N)c2ccc(OC(F)(F)F)cc2)c1`, for which affinity was put at a Ki of 4.29 nM.
For `COc1cc(CNC(=N)c2ccc(OC(F)(F)F)cc2)cc(OC)c1`, the Ki was 22.9 nM.

Broadly, the Ki is the dissociation constant of the complex between target and ligand, obtained from inhibition or displacement. A high value points to a looser hold on the target.
